# Laboratory results: patent US7276339B2 (H. Lundbeck A/S, priority 1998, dated 2007)
# Entries after “also recorded” stand apart in the source; their conditions may differ. Non-standard residues stand in square brackets, D forms with d. Residues, ends and D or L forms follow the SMILES beside them. No end group written: not given here. NMeF = CN[C@@H](Cc1ccccc1)C(=O)O
# How the values were obtained:
# rat NPFF2 receptor [1] = target: T1, rat NPFF2 receptor (Rattus norvegicus, UniProt Q9EQD2); assay: [125I]D-Tyr-NPFF radioligand binding, cloned rat NPFF2; settings: for Ki: read-out: pKi ± SEM, rat NPFF2 (converted)
# T1 construct: The full-length rat NPFF2 clone was amplified from rat spinal cord cDNA; expressed in transfected cells; host or cells: COS-7
# T1 sequence (Q9EQD2 whole entry): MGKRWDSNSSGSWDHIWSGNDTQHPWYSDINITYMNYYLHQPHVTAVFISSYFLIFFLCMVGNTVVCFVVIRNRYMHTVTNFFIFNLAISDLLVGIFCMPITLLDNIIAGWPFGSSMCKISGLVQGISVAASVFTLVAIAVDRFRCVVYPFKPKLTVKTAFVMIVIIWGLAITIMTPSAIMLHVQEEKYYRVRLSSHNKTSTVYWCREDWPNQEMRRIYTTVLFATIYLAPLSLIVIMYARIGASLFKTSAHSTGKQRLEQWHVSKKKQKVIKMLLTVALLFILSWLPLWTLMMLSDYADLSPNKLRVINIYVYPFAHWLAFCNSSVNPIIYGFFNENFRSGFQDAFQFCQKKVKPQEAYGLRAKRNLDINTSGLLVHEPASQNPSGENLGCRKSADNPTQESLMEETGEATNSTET
# Method: (§1) Transfected cells from culture flasks are scraped into 5 ml of 20 mM Tris-HCl, 5 mM EDTA, pH 7.5, and lysed by sonication. The cell lysates are centrifuged at 1000 rpm for 5 min. at 4° C., and the supernatant is centrifuged at 30,000×g for 20 min. at 4° C. The pellet is suspended in binding buffer (50 mM Tris-HCl, 60 mM NaCl, 1 mM MgCl, 33 μM EDTA, 33 μM EGTA at pH 7.4 supplemented with 0.2% BSA, 2 μg/ml aprotinin, and 20 μM bestatin). Optimal membrane suspension dilutions, defined as the protein concentration required to bind less than 10% of the added radioligand, are added to 96-well polpropylene microtiter plates containing ^3H-labeled compound, unlabeled compounds, and binding buffer to a final volume of 250 μl. In equilibrium saturation binding assays membrane preparations are incubated in the presence of increasing concentrations of [^3H]-labeled compound. The binding affinities of the different compounds are determined in equilibrium competition binding assays, using [^125I]-labeled compound in the presence of ten to twelve different concentrations of the displacing ligands. Competition assay: 50 pM radioligand, 10-12 points. Binding reaction mixtures are incubated for 2 hr at 25° C., and the reaction stopped by filtration through a double layer of GF filters treated with 0.1% polyethyleneimine, using a cell harvester. Wash buffer: 50 mM Tris-HCl, 0.1% BSA. Radioactivity may be measured by scintillation counting and data are analyzed by a computerized non-linear regression program. Non-specific binding is defined as the amount of radioactivity remaining after incubation of membrane protein in the presence of 1 μM final concentration […]. Protein concentration may be measured by the Bradford method using Bio-Rad Reagent, with bovine serum albumin as a standard.
# (§2) Additional pharmacological evaluation was done using 293 human embryonic kidney cells (HEK-293 cells) transiently expressing the genes encoding the human NPFF1, NPFF2, and rat NPFF1 receptors, as well as Cos-7 cells expressing the rat NPFF2 receptors.
# rat NPFF1 receptor [2] = target: T2, rat NPFF1 receptor (Rattus norvegicus, UniProt Q9EP86); assay: [125I]D-Tyr-NPFF radioligand binding, membranes of COS-7 cells transiently expressing cloned rat NPFF1; parameters: expressed in transfected cells; host or cells: COS-7 (transient)
# T2 sequence (Q9EP86 whole entry): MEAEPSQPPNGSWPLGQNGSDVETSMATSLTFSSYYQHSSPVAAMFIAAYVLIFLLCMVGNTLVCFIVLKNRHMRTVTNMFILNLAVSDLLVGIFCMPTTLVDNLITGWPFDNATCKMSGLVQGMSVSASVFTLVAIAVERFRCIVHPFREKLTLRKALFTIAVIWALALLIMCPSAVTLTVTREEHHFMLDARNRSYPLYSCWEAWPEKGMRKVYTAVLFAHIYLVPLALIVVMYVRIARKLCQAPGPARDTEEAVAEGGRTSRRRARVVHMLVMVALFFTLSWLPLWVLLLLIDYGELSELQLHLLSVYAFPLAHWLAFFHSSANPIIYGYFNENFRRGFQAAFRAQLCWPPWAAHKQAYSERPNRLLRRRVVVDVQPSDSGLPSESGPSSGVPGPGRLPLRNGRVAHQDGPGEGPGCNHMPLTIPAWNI
# Method: as §1, with “The pellet is suspended in binding buffer (50 mM Tris-HCl, 60 mM NaCl, 1 mM MgCl, 33 μM EDTA, 33 μM EGTA at pH 7.4 supplemented with 0.2% BSA, 2 μg/ml aprotinin, and 20 μM bestatin).” left out, “[…],” for “are added to 96-well polpropylene microtiter plates containing ^3H-labeled compound,”, “The binding affinities of the different compounds are determined in equilibrium competition binding assays, using [^125I]-labeled compound in the presence of ten to twelve different concentrations of the displacing ligands.” left out
# Cos-7 cells transiently expressing the gene encoding the novel rat NPFF1 receptor were used for pharmacological evaluation.
# human NPFF2 receptor = target: T3, human NPFF2 receptor (Homo sapiens, UniProt Q9Y5X5); assay: [125I]D-Tyr-NPFF radioligand binding, HEK-293 cells expressing human NPFF2; settings: for Ki: read-out: pKi ± SEM, human NPFF2 (converted)
# T3 construct: BO89, was determined to be a full length clone with no point mutations; expressed in transfected cells; host or cells: HEK-293 (transient)
# T3 sequence (Q9Y5X5 103-522): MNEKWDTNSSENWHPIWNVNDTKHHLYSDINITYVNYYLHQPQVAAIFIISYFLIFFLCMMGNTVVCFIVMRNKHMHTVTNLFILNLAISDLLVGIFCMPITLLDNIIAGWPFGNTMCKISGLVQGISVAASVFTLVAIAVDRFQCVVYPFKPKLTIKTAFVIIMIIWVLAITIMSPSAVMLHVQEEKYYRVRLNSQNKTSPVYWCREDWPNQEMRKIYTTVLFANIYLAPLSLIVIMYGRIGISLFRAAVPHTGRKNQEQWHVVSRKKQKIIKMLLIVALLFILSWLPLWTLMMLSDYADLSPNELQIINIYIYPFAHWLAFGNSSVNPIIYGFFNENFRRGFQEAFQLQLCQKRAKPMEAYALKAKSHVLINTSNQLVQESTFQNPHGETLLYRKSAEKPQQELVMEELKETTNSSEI
# Method: as §1, §2
# [3] = target: rat spinal cord membrane receptor; assay: [125I]D-Tyr-NPFF radioligand binding, rat spinal cord membranes; settings: competition of [125I]D-Tyr-NPFF binding; * = differs from NPFF1
# Text: The binding profile of rat NPFF1 was compared to that of rat spinal cord membranes. […] (See * Table 2).
# anesthetized rats = assay: Distension-induced rhythmic contraction (DIRC) model of the micturition reflex in anesthetized rats; assay type: in vivo, rat; settings: i.v.
# Method: The effects of compounds on the micturition reflex were assessed in the “distension-induced rhythmic contraction” (DIRC) model in rats. This model of the micturition reflex has been described in previous publications (e.g. 72, 73).
# Female Sprague Dawley rats weighing approximately 300 g were anesthetized with subcutaneous urethane (1.2 g/kg). The trachea was cannulated with PE240 tubing to provide a clear airway throughout the experiment. A midline abdominal incision was made and the left and right ureters were isolated. The ureters were ligated distally (to prevent escape of fluids from the bladder) and cannulated proximally with PE10 tubing. The incision was closed using 4-0 silk sutures, leaving the PE10 lines routed to the exterior for the elimination of urine. The bladder was canulated via the transurethral route using PE50 tubing inserted 2.5 cm beyond the urethral opening. This cannula was secured to the tail using tape and connected to a pressure transducer. To prevent leakage from the bladder, the cannula was tied tightly to the exterior urethral opening using 4-0 silk.
# To initiate the micturition reflex, the bladder was first emptied by applying pressure to the lower abdomen, and then filled with normal saline in 100 μl increments (maximum=2 ml) until spontaneous bladder contractions occurred (typically 20-40 mmHg at a rate of one contraction every 2 to 3 minutes. Once a regular rhythm was established, vehicle (saline) or test compounds were administered intravenously to examine their effects on bladder activity. The effect of a compound which inhibited the micturition reflex was expressed as its “disappearance time”, defined as the time between successive bladder contractions in the presence of the test compound minus the time between contractions before compound administration.
# rat NPFF1 receptor [4] = target: T2, rat NPFF1 receptor; assay: [125I]D-Tyr-NPFF radioligand binding, HEK-293 cells expressing rat NPFF1; parameters: expressed in transfected cells; settings: for Ki: Table 3, read-out: pKi ± SEM, rat NPFF1 (converted)
# Method: as §1, §2
# human NPFF1 receptor = target: T4, human NPFF1 receptor (Homo sapiens, UniProt Q9GZQ6); assay: [125I]D-Tyr-NPFF radioligand binding, HEK-293 cells expressing human NPFF1; settings: for Ki: Table 3, read-out: pKi ± SEM, human NPFF1 (converted)
# T4 construct: To obtain a full-length hNPFF1 construct in the correct orientation; expressed in transfected cells; host or cells: HEK-293 (transient)
# T4 sequence (Q9GZQ6 whole entry): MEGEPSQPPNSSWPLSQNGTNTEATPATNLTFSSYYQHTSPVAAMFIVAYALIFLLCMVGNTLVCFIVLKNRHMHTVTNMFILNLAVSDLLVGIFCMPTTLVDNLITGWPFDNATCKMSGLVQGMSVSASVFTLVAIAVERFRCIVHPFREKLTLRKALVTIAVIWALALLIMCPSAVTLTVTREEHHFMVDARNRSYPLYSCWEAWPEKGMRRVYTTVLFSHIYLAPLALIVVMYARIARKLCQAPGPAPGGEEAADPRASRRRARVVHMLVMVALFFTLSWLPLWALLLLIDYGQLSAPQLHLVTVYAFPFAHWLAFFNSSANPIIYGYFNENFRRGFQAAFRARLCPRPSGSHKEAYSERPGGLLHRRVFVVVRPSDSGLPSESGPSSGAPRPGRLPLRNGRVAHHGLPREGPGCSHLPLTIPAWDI
# Method: as §1, §2
# NPFF receptors = settings: cited from earlier work; for inhibition of [125I](1DMe)Y8Fa binding: 10 μM
# NPFF2 (NPFF-like) = target: T5, NPFF2 (NPFF-like) (Homo sapiens, UniProt Q9Y5X5); assay: Voltage-clamp electrophysiology, Xenopus oocytes injected with NPFF-like (NPFF2) and chimeric Gαq/z RNA; assay type: cell-based; settings: 1 μM, holding potential −80 mV
# T5 construct: linearized plasmids or PCR products containing the complete coding region of the genes; expressed in transfected cells; host or cells: Xenopus laevis oocytes injected with mRNA from ligation PCR products or linearized BO89
# T5 sequence (Q9Y5X5 103-522): as the sequence (Q9Y5X5 103-522) above
# Method: For expression of NPFF2, mRNA transcripts were generated as described for NPFF1, using PCR products from ligation reactions or linearized DNA from BO89 as DNA templates. Oocytes were injected with 5-50 ng NPFF2 mRNA and incubated as previously described.
# (§3) Oocytes were harvested from Xenopus laevis and injected with mRNA transcripts as previously described (Quick and Lester, 1994; Smith et al., 1997). […] Three to eight hours prior to recording, oocytes were injected with 500 pg Gαq/z mRNA in order to observe coupling to Ca^++ activated Cl^− currents. Dual electrode voltage clamp (Axon Instruments Inc.) was performed using 3 M KCl-filled glass microelectrodes having resistances of 1-2 Mohm. Unless otherwise specified, oocytes were voltage clamped at a holding potential of −80 mV. During recordings, oocytes were bathed in continuously flowing (1-3 ml/min) medium containing 96 mM NaCl, 2 mM KCl, 1.8 mM CaCl2, 1 mM MgCl2, and 5 mM HEPES, pH 7.5 (ND96). Drugs were applied either by local perfusion from a […] glass capillary tube fixed at a distance of 0.5 mm from the oocyte, or by switching from a series of gravity fed perfusion lines.
# (§4) Heterologous expression of GPCRs in Xenopus oocytes has been widely used to determine the identity of signaling pathways activated by agonist stimulation (Gundersen et al., 1983; Takahashi et al., 1987). Activation of the phospholipase C (PLC) pathway is assayed by applying test compound in ND96 solution to oocytes previously injected with mRNA for the mammalian receptor and observing inward currents at a holding potential of −80 mV. The appearance of currents that reverse at −25 mV and display other properties of the Ca^++-activated Cl^− (chloride) channel is indicative of mammalian receptor-activation of PLC and release of IP3 and intracellular Ca^++.
# NPFF1 (SNORF2) = target: T6, NPFF1 (SNORF2) (Rattus norvegicus, UniProt Q9EP86); assay: Voltage-clamp electrophysiology, Xenopus oocytes injected with SNORF2 (NPFF1) and chimeric Gαq/z RNA; assay type: cell-based; settings: 1 μM; oocytes with SNORF2 + Gαq/z; holding potential −80 mV
# T6 construct: linearized plasmids or PCR products containing the complete coding region of the genes; expressed in transfected cells; host or cells: Xenopus laevis oocytes injected with synthetic RNA (T7 transcripts)
# T6 sequence (Q9EP86 whole entry): as the sequence (Q9EP86 whole entry) above
# Method: as §3, §4
# rat NPFF2 receptor [5] = target: T1, rat NPFF2 receptor; assay: Functional activity at cloned rat NPFF2 in COS-7 cells; assay type: cell-based
# normotensive rats = assay: Blood pressure in anesthetized normotensive rats, intravenous administration; assay type: in vivo, rat; settings: 0.3 mg/kg, 1 minute before the agonist
# Text: Rats were anesthetized with urethane and PE50 cannulae were placed in the femoral artery and vein for blood pressure monitoring and drug administration, respectively.
# rat NPFF1 receptor [6] = target: T2, rat NPFF1 receptor; assay: Functional activity at cloned rat NPFF1 in COS-7 cells; assay type: cell-based; parameters: expressed in transfected cells; host or cells: COS-7 (transient); settings: COS-7 cells
# [7] = Table 3, title HEK-293 cells (text: Cos-7), [125I]D-Tyr-NPFF
# [8] = Table 3, HEK-293 cells, [125I]D-Tyr-NPFF
compound,measurement,setting,value
APSEPHHPGDQATQDQLAQYYSDLYQYITFVTRPRF-NH2 (C-terminus assumed) [fPP],fold greater affinity for rat NPFF2 compared to rat NPFF1,rat NPFF2 receptor [1]; from competition binding pKi,31 fold
same,"pKi for cloned rat NPFF1 receptor binding in COS-7 cells, MEAN","rat NPFF1 receptor [2]; competition of [125I]D-Tyr-NPFF binding, COS-7 membranes",5.5
same,displacement of [125I]D-Tyr-NPFF binding on the NPFF1 receptor,rat NPFF1 receptor [2]; up to 1 uM,did not displace
same,fold greater affinity for human NPFF2 compared to human NPFF1,human NPFF2 receptor; from competition binding pKi,77 fold
same,"pKi for rat spinal cord membrane receptor binding, MEAN",[3],*9.118
same,effect on distension-induced rhythmic contractions of the bladder,anesthetized rats; fPP 0.1 mg/kg,inhibited
CSCC[C@@H](NC(=O)[C@@H](N)Cc1ccccc1)C(=O)N[C@@H](CCCNC(=N)N)C(=O)N[C@@H](Cc1ccccc1)C(N)=O [D-Met-FMRF amide],Ki,rat NPFF2 receptor [1]; [7],631 nM
same,Ki,human NPFF2 receptor; [8],398 nM
same,Ki,rat NPFF1 receptor [4],631 nM
same,Ki,human NPFF1 receptor,251 nM
CSCC[C@H](NC(=O)[C@H](CC(C)C)NC(=O)CNC(=O)[C@H](Cc1ccccc1)NC(=O)[C@H](Cc1ccccc1)NC(=O)[C@H](CCC(N)=O)NC(=O)[C@H](CCC(N)=O)NC(=O)[C@@H]1CCCN1C(=O)[C@H](CCCCN)NC(=O)[C@@H]1CCCN1C(=O)[C@@H](N)CCCN=C(N)N)C(N)=O [substance P],inhibition of [125I](1DMe)Y8Fa binding,NPFF receptors,No inhibition
H-AGEGLSSPFWSLAAPQRF-NH2 [A18Fa],Ki,rat NPFF2 receptor [1]; [7],6.31 nM
same,Ki,human NPFF2 receptor; [8],1.26 nM
same,inward current response,NPFF2 (NPFF-like),activated similar inward currents
same,Ki,rat NPFF1 receptor [4],31.6 nM
same,"pKi for rat spinal cord membrane receptor binding, MEAN",[3],*9.000
same,Ki,human NPFF1 receptor,63.1 nM
same,inward current response,NPFF1 (SNORF2),robust inward currents
neurokinin A,inward current response,NPFF2 (NPFF-like),failed to activate; also recorded: no response
NPY,inhibition of [125I](1DMe)Y8Fa binding,NPFF receptors,No inhibition
same,inward current response,NPFF2 (NPFF-like),failed to activate; also recorded: no response
CC(C)C[C@H](NC(=O)[C@H](N)Cc1ccc(O)cc1)C(=O)N(C)[C@@H](Cc1ccccc1)C(=O)N[C@@H](CCC(N)=O)C(=O)N1CCC[C@H]1C(=O)N[C@@H](CCC(N)=O)C(=O)N[C@@H](CCCNC(=N)N)C(=O)N[C@@H](Cc1ccccc1)C(N)=O [(D-Tyr^1-(NMe)Phe^3)NPFF] (H-[dY]L[NMeF]QPQRF-NH2; N-terminus assumed),Ki,"NPFF receptors; spinal cord membranes, read-out: Ki, inhibition of [125I](1DMe)Y8Fa binding",0.16 nM
same,"pKi for rat spinal cord membrane receptor binding, MEAN",[3],*9.724
CN1CC[C@]23c4c5ccc(O)c4O[C@H]2[C@@H](O)C=C[C@H]3[C@H]1C5 [morphine],inhibition of [125I](1DMe)Y8Fa binding,NPFF receptors,No inhibition
NC(N)=NCCC[C@@H](NC(=O)C(c1ccccc1)c1ccccc1)C(=O)NCc1ccc(O)cc1 [BIBP 3226],"pKi ± SEM, rat NPFF2",rat NPFF2 receptor [1]; [7],5.8±0.02
same,"pKi ± SEM, human NPFF2",human NPFF2 receptor; [8],5.9 ± 0.04
same,EC50,rat NPFF2 receptor [5],944 nM
same,"Maximum Effect (% NPFF), rat NPFF2",rat NPFF2 receptor [5],67 % NPFF
same,"pKi ± SEM, rat NPFF1",rat NPFF1 receptor [4]; Table 3,7.6±0.04
same,block of inhibitory effect of fPP on micturition,anesthetized rats; 0.3 mg/kg,not blocked
same,block of inhibitory response to NPFF on micturition,anesthetized rats; 0.3 mg/kg,did not block
same,block of pressor response to fPP,normotensive rats,completely blocked
same,"block of pressor response to pLeu,Pro-NPY",normotensive rats,completely blocked
same,reduction of pressor response to NPFF,normotensive rats,~50%
same,"pKi ± SEM, human NPFF1",human NPFF1 receptor; Table 3,6.9 ± 0.04
same,"Maximum Effect (% NPFF), rat NPFF1",rat NPFF1 receptor [6],0 % NPFF
same,EC50,"rat NPFF1 receptor [6]; read-out: EC50, rat NPFF1",> 10 µM
"orexin A (QPLPDCCRQKTCSCRLYELLHGAGNHAAGILTL; ends and bridges not checked; cysteine pairing not given here; UniProt O43612 34-66, looked up)",inward current response,NPFF2 (NPFF-like),failed to activate; also recorded: no response
